Source: patent US20170189507A1, “NOVEL PEPTIDES AND COMBINATION OF PEPTIDES FOR USE IN IMMUNOTHERAPY AGAINST VARIOUS CANCERS” (immatics biotechnologies GmbH, priority 2015, published 2017)

Legend:
[1] = test system: CD8+ T cells; test: In vitro immunogenicity: T-cell priming with aAPCs loaded with peptide/MHC complexes and anti-CD28 antibody, pMHC multimer readout; format: cell-based, human; settings: for Wells (in vitro immunogenicity of HLA class I peptides): CD8+ T cells of healthy donors, three stimulation cycles, multimer staining, Table 19A; for Wells positive [%]: in vitro immunogenicity of HLA class I peptides, peptide-specific multimer+ wells after aAPC priming of CD8+ T cells
Procedure: In an aspect, the peptides are pre-screened for immunogenicity before being included in the warehouse. By way of example, and not limitation, the immunogenicity of the peptides included in the warehouse is determined by a method comprising in vitro T-cell priming through repeated stimulations of CD8+ T cells from healthy donors with artificial antigen presenting cells loaded with peptide/MHC complexes and anti-CD28 antibody.
In order to obtain information regarding the immunogenicity of the TUMAPs of the present invention, the inventors performed investigations using an in vitro T-cell priming assay based on repeated stimulations of CD8+ T cells with artificial antigen presenting cells (aAPCs) loaded with peptide/MHC complexes and anti-CD28 antibody.
In order to perform in vitro stimulations by artificial antigen presenting cells loaded with peptide-MHC complex (pMHC) and anti-CD28 antibody, the inventors first isolated CD8+ T cells from fresh HLA-A*02 leukapheresis products via positive selection using CD8 microbeads (Miltenyi Biotec, Bergisch-Gladbach, Germany) of healthy donors obtained from the University clinics Mannheim, Germany, after informed consent.
PBMCs and isolated CD8+ lymphocytes were incubated in T-cell medium (TCM) until use consisting of RPMI-Glutamax (Invitrogen, Karlsruhe, Germany) supplemented with 10% heat inactivated human AB serum (PAN-Biotech, Aidenbach, Germany), 100 U/ml Penicillin/100 μg/ml Streptomycin (Cambrex, Cologne, Germany), 1 mM sodium pyruvate (CC Pro, Oberdorla, Germany), 20 μg/ml Gentamycin (Cambrex). 2.5 ng/ml IL7 (PromoCell, Heidelberg, Germany) and 10 U/ml IL-2 (Novartis Pharma, Nurnberg, Germany) were also added to the TCM at this step.
Generation of pMHC/anti-CD28 coated beads, T-cell stimulations and readout was performed in a highly defined in vitro system using four different pMHC molecules per stimulation condition and 8 different pMHC molecules per readout condition.
The purified co-stimulatory mouse IgG2a anti human CD28 Ab 9.3 (Jung et al., 1987) was chemically biotinylated using Sulfo-N-hydroxysuccinimidobiotin as recommended by the manufacturer (Perbio, Bonn, Germany). Beads used were 5.6 μm diameter streptavidin coated polystyrene particles (Bangs Laboratories, Illinois, USA).
pMHC used for positive and negative control stimulations were A*0201/MLA-001 (peptide […] (SEQ ID NO. 303) from modified Melan-A/MART-1) and A*0201/DDX5-001 ([…] from DDX5, SEQ ID NO. 304), respectively.
800.000 beads/200 μl were coated in 96-well plates in the presence of 4×12.5 ng different biotin-pMHC, washed and 600 ng biotin anti-CD28 were added subsequently in a volume of 200 μl. Stimulations were initiated in 96-well plates by co-incubating […] CD8+ T cells with 2×10^5 washed coated beads in 200 μl TCM supplemented with 5 ng/ml IL-12 (PromoCell) for 3 days at 37° C. Half of the medium was then exchanged by fresh TCM supplemented with 80 U/ml IL-2 and incubating was continued for 4 days at 37° C. This stimulation cycle was performed for a total of three times. For the pMHC multimer readout using 8 different pMHC molecules per condition, a twodimensional combinatorial coding approach was used as previously described (Andersen et al., 2012) with minor modifications encompassing coupling to 5 different fluorochromes. Finally, multimeric analyses were performed by staining the cells with Live/dead near IR dye (Invitrogen, Karlsruhe, Germany), CD8-FITC antibody clone SK1 (BD, Heidelberg, Germany) and fluorescent pMHC multimers. For analysis, a BD LSRII SORP cytometer equipped with appropriate lasers and filters was used. Peptide specific cells were calculated as percentage of total CD8+ cells. Evaluation of multimeric analysis was done using the FlowJo software (Tree Star, Oregon, USA). In vitro priming of specific multimer+ CD8+ lymphocytes was detected by comparing to negative control stimulations.

[2] = test system: HLA-A*24; test: MHC binding assay (UV-ligand exchange, beta2m ELISA), HLA-A*24; parameters: species or system human; settings: MHC class I binding score, peptide exchange yield
Source text: Candidate peptides for T cell based therapies according to the present invention were further tested for their MHC binding capacity (affinity). The individual peptide-MHC complexes were produced by UV-ligand exchange, where a UV-sensitive peptide is cleaved upon UV-irradiation, and exchanged with the peptide of interest as analyzed. Only peptide candidates that can effectively bind and stabilize the peptide-receptive MHC molecules prevent dissociation of the MHC complexes. To determine the yield of the exchange reaction, an ELISA was performed based on the detection of the light chain ([…] of stabilized MHC complexes. The assay was performed as generally described in Rodenko et al. (Rodenko et al., 2006).
96 well MAXISorp plates (NUNC) were coated over night with 2 ug/ml streptavidin in PBS at room temperature, washed 4× and blocked for 1 h at 37° C. in 2% BSA containing blocking buffer. Refolded HLA-A*02:01/MLA-001 monomers served as standards, covering the range of 15-500 ng/ml. Peptide-MHC monomers of the UV-exchange reaction were diluted 100 fold in blocking buffer. Samples were incubated for 1 h at 37° C., washed four times, incubated with 2 ug/ml HRP conjugated anti-β2m for 1 h at 37° C., washed again and detected with TMB solution that is stopped with […]. Absorption was measured at 450 nm. Candidate peptides that show a high exchange yield (preferably higher than 50%, most preferred higher than 75%) are generally preferred for a generation and production of antibodies or fragments thereof, and/or T cell receptors or fragments thereof, as they show sufficient avidity to the MHC molecules and prevent dissociation of the MHC complexes.

Substance | Wells (in vitro immunogenicity of HLA class I peptides) [1] | Wells positive [%] [1] | other results
293 (FLVDGSWSI; listed as Homo sapiens) [compound 293] | + (<20% = +) | – | –
29 (YLLDPSITL; listed as Homo sapiens) [compound 29] | – | + (<20% = +) | –
269 (YFIDSTNLKTHF; listed as Homo sapiens) [compound 269] | – | + (<20% = +) | –
163 (DYLKGLASF; listed as Homo sapiens) [compound 163] | – | + (<20% = +) | Peptide exchange [2]: ++++ (>=75% = ++++)
207 (AYVVFVSTL; listed as Homo sapiens) [compound 207] | – | + (<20% = +) | –
5 (GIVAHIQEV; listed as Homo sapiens) [compound 5] | – | + (<20% = +) | –
26 (ALQEELTEL; listed as Homo sapiens) [compound 26] | – | + (<20% = +) | –
300 (AYVLRLETL; listed as Homo sapiens) [compound 300] | + (<20% = +) | – | –
196 (LYIDRPLPYL; listed as Homo sapiens) [compound 196] | – | ++++ (>=70% = ++++) | –
141 (FLDKVLVAA; listed as Homo sapiens) [compound 141] | – | + (<20% = +) | –
295 (YYPGVILGF; listed as Homo sapiens) [compound 295] | ++ (20%-49% = ++) | – | –
296 (TYVDSSHTI; listed as Homo sapiens) [compound 296] | + (<20% = +) | – | –
90 (FLQDLEQRL; listed as Homo sapiens) [compound 90] | – | + (<20% = +) | –
285 (HYPPVQVLF; listed as Homo sapiens) [compound 285] | – | + (<20% = +) | –
297 (PFLQASPHF; listed as Homo sapiens) [compound 297] | ++ (20%-49% = ++) | – | –
35 (FLLPFSTVYL; listed as Homo sapiens) [compound 35] | – | + (<20% = +) | –

Substance | Wells (in vitro immunogenicity of HLA class I peptides) [1] | Wells positive [%] [1] | other results
31 (TITETTVEV; listed as Homo sapiens) [compound 31] | – | + (<20% = +) | –
230 (KLQNIMMLL; listed as Homo sapiens) [compound 230] | – | ++++ (>=70% = ++++) | –
291 (KLDETGNSL; listed as Homo sapiens) [compound 291] | + (<20% = +) | – | –
268 (QYLGQIQHI; listed as Homo sapiens) [compound 268] | – | + (<20% = +) | –
298 (RYLEGTSCI; listed as Homo sapiens) [compound 298] | + (<20% = +) | – | –
292 (GMMTAILGV; listed as Homo sapiens) [compound 292] | + (<20% = +) | – | –
301 (AYKPGALTF; listed as Homo sapiens) [compound 301] | + (<20% = +) | – | –
218 (YYKSTSSAF; listed as Homo sapiens) [compound 218] | – | + (<20% = +) | –
197 (EYSLFPGQVVI; listed as Homo sapiens) [compound 197] | – | + (<20% = +) | –
23 (SLFSDEFKV; listed as Homo sapiens) [compound 23] | – | ++++ (>=70% = ++++) | –
18 (ILLDLTDNRL; listed as Homo sapiens) [compound 18] | – | + (<20% = +) | –
290 (KIVDFSYSV; listed as Homo sapiens) [compound 290] | ++ (20%-49% = ++) | – | –
149 (ILNTHITEL; listed as Homo sapiens) [compound 149] | – | + (<20% = +) | –
168 (KYQDILETI; listed as Homo sapiens) [compound 168] | – | – | Peptide exchange [2]: ++++ (>=75% = ++++)
276 (VYGFQWRHF; listed as Homo sapiens) [compound 276] | – | – | Peptide exchange [2]: ++++ (>=75% = ++++)
